According to patent US20050153315A1, “Dimethylarginine dimethylaminohydrolases” (UNIVERSITY COLLEGE LONDON, priority 1999, published 2005):

Legend:
Format in all cases: biochemical
recombinant human DDAHII = target: T1, recombinant human DDAHII (Homo sapiens, UniProt O95865); assay: DDAH assay, [14C]L-NMMA to [14C]citrulline, lysates of E. coli expressing recombinant human DDAHII; settings: E. coli lysate, 37° C., 60 min, pH 6.5; for effect of competition on metabolism of [14C] L-NMMA by recombinant DDAHII: molar excess of cold competitor
T1 construct: The entire human DDAHII open reading frame was PCR amplified from oligo dT primed human kidney cDNA; made in house; host or cells: E. coli DH5α, soluble fraction of the lysate, not purified
T1 sequence (O95865 1-285): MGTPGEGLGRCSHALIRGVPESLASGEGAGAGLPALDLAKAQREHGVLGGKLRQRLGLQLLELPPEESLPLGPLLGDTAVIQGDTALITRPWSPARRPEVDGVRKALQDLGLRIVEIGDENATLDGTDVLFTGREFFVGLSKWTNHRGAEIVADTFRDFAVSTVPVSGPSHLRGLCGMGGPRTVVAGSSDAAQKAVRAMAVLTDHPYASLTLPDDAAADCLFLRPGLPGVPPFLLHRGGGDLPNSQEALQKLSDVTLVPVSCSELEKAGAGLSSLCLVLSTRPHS
Description: The entire human DDAHII open reading frame was PCR amplified from oligo dT primed human kidney cDNA using oligos HDDAHII.1 and HDDAHII.2. Oligo HDDAH II.1 is complementary to base pairs 2-15 of the human DDAHII cDNA and contains an EcoRI site in frame with the EcoTI site of pPROX.HTa (Life Technologies). HDDAHI.2 is complementary to base pairs 858-840 of the human DDAHII cDNA and contains an artificial XbaI site. PCR produced a single product of ˜850 bp which was digested with EcoRI and Xbai, ligated into EcoRI and XbaI digested pRPROX.HTa and transformed into compotent E.coli DH5α. A positive clone (pPDDAHII) containing an insert of 858 bp was identified and the insert sequenced on both stands. For expression of recombinant human DDAHII, E.coli were grown in liquid culture at 25 ° C. to an OD600 of 0.5-0.6. Expression was then induced by the addition of IPTG to a final concentration of 1 mM and incubation continued for a further two hours. Following induction, cells were collected by centrifugation, weighed and resuspended in ice cold assay buffer (100 mM Na2HPO4 pH 6.5) at 1 g cells/ml. Cells were disrupted by sonication (6×10 secs, with 10 sec. intervals) and centriguged at 50,000 g to separate soluble material from insoluble cell debris.
Aliquots of E.coli lysates were incubated at 37° C. for 60 min. with […] of 100 mM Na2HPO4 pH 6.5 containing 0.02 μCi [^14C]L-NMMA as described previously (MacAllister et al., 1996, Br. J. Pharmacol. 115, 1001-1004). Following incubation samples were prepared for determination of [^14C] citrulline production by scintillation counting. Reactions were vortexed with 1 ml of 50% (w/v) dowex 50X8-400, centrifuged at 10,000 g for 5 min and then 500 μl of the supernatant was mixed with 5 ml of liquid scintillation fluid and the [^14C] content determined.

[1] = target: T2, P. aeruginosa DDAH (PaDDAH) (Pseudomonas aeruginosa, UniProt Q9I4E3); assay: DDAH assay, cell lysates containing recombinant P. aeruginosa DDAH; settings: 10 mM
T2 construct: The inserts containing the open reading frames of the bacterial DDAHs were excised from the vector; made in house; host or cells: E. coli DH5α, cell lysate
T2 sequence (Q9I4E3 whole entry): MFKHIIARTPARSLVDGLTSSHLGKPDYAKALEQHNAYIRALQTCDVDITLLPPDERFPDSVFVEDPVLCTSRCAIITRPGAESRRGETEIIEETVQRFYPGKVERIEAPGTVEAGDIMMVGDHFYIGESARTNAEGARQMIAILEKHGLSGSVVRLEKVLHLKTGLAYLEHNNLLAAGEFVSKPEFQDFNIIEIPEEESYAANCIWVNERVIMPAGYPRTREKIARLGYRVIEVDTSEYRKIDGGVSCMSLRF
Experimental: (§1) The effect of 10 mM ADMA and SDMA on recombinant ScDDAH and paDDAH was studied using the assay conditions described in the material and methods section below. Assays were carried out in triplicate on aliquots of cell lysates containing empty vector, scDDAH cDNA or paDDAH cDNA and data was expressed as a mean of the total number of replicates after subtraction of background. The results shown are the mean of three independent experiments.
(§2) Samples were assayed by incubating 100 μl of cells lysates with an equal volume of assay mix (100 mM Na2HPO4 pH 6.5, containing 0.02 μCi [^14C] L-NMMA and 100 μM cold L-NMMA) at 37° C. for 60 min, as previously reported. The samples were then prepared for scintillation counting to measure the production of [^14C] citrulline by adding 400 μl of 50% (w/v) Dowex 50X-400 to the reactions, vortexing and centrifugation at 13000 g for 2 min. The [^14C] content of 100 μl of supernatant in 1 ml scintillation fluid was then determined.
(§3) For expression of the recombinant proteins, a positive clone was picked and grown in liquid media supplemented with 100 μg/ml ampicillin. […]

[2] = tested on: S. coelicolor DDAH (ScDDAH); assay: DDAH assay, cell lysates containing recombinant S. coelicolor DDAH; settings: 10 mM
Experimental: as §1, §2, §3

NC(=O)NCCC[C@H](N)C(=O)O [citrulline]
effect of competition on metabolism of [14C] L-NMMA by recombinant DDAHII (recombinant human DDAHII): inhibited

CNC(=N)NCC[C@H](N)C(=O)O [4124W, S-2-amino-4(3-methylguanidino)butanoic acid]
effect of DDAH inhibitor on metabolism of [14C] L-NMMA by recombinant DDAHII (recombinant human DDAHII): inhibited

CN(C)C(N)=NCCC[C@H](N)C(=O)O [ADMA, N^GN′^G dimethyl-L-arginine]
relative effect on the metabolism of L-NMMA ([1]; ADMA compared with SDMA, PaDDAH): greater effect than SDMA
competition with L-NMMA as substrate (metabolism of [14C] L-NMMA) ([1]; PaDDAH cell lysate, FIG. 7): compete with L-NMMA as substrates
effect of competition on metabolism of [14C] L-NMMA by recombinant DDAHII (recombinant human DDAHII): inhibited
relative effect on the metabolism of L-NMMA ([2]; ADMA compared with SDMA, ScDDAH): greater effect than SDMA
competition with L-NMMA as substrate (metabolism of [14C] L-NMMA) ([2]; ScDDAH cell lysate, FIG. 7): compete with L-NMMA as substrates

CNC(=N)NCCC[C@H](N)C(=O)O [L-NMMA, N^G monomethyl-L-arginine]
effect of competition on metabolism of [14C] L-NMMA by recombinant DDAHII (recombinant human DDAHII): inhibited
